One data set has as its system SCLC. The note with it: second-line treatment, patients with SCLC; cited from earlier work.
A short description of the next data set: CFU-GM assay. The following applies: human, human bone marrow mononuclear cells. Type of data set: cell-based.
The subject of the next data set is R/R-PTCL. The note with it: cited from earlier work.

Take `COc1ccc2[nH]c3c(c2c1)CCN[C@]31CS[C@@H]2c3c(OC(C)=O)c(C)c4c(c3[C@H](COC1=O)N1[C@@H]2[C@H]2c3c(cc(C)c(OC)c3O)C[C@@H]([C@@H]1O)N2C)OCO4` [lurbinectedin]: the overall response rate in the data set on SCLC is on record as 35.2%.

The compound `COc1cc(Nc2ncc3c(n2)-c2ccc(Cl)cc2C(c2c(F)cccc2OC)=NC3)ccc1C(=O)O` [Alisertib] returned an IC90 in “CFU-GM assay” of 252 nM. Besides, in the data set with R/R-PTCL, the “progression-free survival compared to investigator-selected single-agent comparators” value is recorded as “failed to improve the progression-free survival”.

As usually defined, the IC90 is the concentration at which the effect reaches the 90% level. A high value points to weaker potency.

Source of the values: paper PMC11097369 (ACS Omega, 2024).
